Assay results taken from US10329282B2, “Rho-associated protein kinase inhibitor, pharmaceutical composition comprising the same, as well as preparation method and use thereof” (Beijing Tide Pharmaceutical Co., Ltd., priority 2017, dated 2019).

Target: ROCK2 (Homo sapiens (Human), UniProt O75116)
Test: ROCK2 kinase IC50 assay (CISBIO HTRF KinEASE-STK S2 kit)
Type: biochemical
Conditions: ROCK2 from Carna Biosciences, 2 h incubation at room temperature
Description: The kinase IC50 was determined by a commercialized CISBIO kinase detection kit, HTRF KinEASE-STK S2 kit (62ST2PEC). ROCK2 (01-119) employed in the reaction was purchased from Carna Biosciences.
Before the assay, the following working solutions as needed were formulated with corresponding reagents according to the instruction of the kinase detection kit: 1×kinase buffer, 5×STK-52 substrate working solution (1.5 μM) and 5×ATP working solution (1.5 μM), 5×ROCK2 kinase working solution, 4×Streptavidin-XL665 working solution, and 4×STK-Ab-Cryptate 2 detection solution. Then the assay was performed according to the following procedure.
A solution of a compound at a concentration of 10000 nM was prepared with the 1×kinase buffer containing 2.5% DMSO. Gradient dilution of the solution of the compound was performed with the kinase buffer containing DMSO, so as to obtain solutions of a test compound at 9 different concentrations. In addition to wells of test compounds, a positive well (containing all the reagents except the compound) and a negative well (containing all the reagents except the test compound and kinase) were set. Except for the control wells (positive and negative wells), a solution of a test compound (4 μL) was added to each of the reaction wells, and a solution of 2.5% DMSO was added to the control wells. Then the substrate (2 μM, i.e., 2 μL 5×STK-S2 substrate working solution) was added to each of the reaction wells. The 5×ROCK2 kinase working solution (2 μL, containing 1.4 ng ROCK2 kinase) was added to each of the reaction wells except for the negative well, the volume of which was made up with the 1×kinase buffer (2 μL). The 5×ATP working solution (2 μL) was added to each of the reaction wells, and the mixtures were incubated at room temperature for 2 hours. After the kinase reaction was complete, the 4×Streptavidin-XL665 working solution was added to each of the reaction wells, the solutions were mixed, followed by immediate addition of the 4×STK-Ab-Cryptate 2 detection solution (5 μL), and the mixtures were incubated at room temperature for 1 hour. The fluorescence signal was read on ENVISION (Perkinelmer) (excitation wavelength: 320 nm, and emission wavelength: 665 nm and 615 nm). The inhibitory rate in each well was calculated based on the fluorescence intensity value: ER (Emission Ratio)=(fluorescence intensity at 665 nm/fluorescence intensity at 615 nm); inhibitory rate=(ERpositive−ERtest compound) (ERpositive−ERnegative)*100%. Curves were plotted and fitted to obtain the median inhibitory concentration (IC50) of each teat compound with the PRISM 5.0 software.

ROCK2, sequence (O75116 1-553): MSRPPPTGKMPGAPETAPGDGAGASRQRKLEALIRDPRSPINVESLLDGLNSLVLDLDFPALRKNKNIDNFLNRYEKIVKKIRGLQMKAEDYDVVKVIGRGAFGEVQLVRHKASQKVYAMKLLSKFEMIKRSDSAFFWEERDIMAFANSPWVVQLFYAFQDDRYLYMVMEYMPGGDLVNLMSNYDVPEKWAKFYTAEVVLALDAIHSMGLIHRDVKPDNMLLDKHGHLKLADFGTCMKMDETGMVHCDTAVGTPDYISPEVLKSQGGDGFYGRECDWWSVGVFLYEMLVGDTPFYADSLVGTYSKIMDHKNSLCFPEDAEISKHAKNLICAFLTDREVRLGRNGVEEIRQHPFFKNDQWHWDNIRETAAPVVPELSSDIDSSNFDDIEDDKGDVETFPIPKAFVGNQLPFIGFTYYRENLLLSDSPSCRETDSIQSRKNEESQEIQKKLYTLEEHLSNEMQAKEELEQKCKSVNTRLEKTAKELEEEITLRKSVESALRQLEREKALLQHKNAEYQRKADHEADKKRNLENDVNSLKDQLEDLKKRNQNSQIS

Row | SMILES | IC50 [nM]
1 | O=C(Nc1ccncc1)c1cc2ccc(-c3nccc(Nc4ccc5[nH]ncc5c4)n3)cc2[nH]1 [TDI01153, 6-(4-((1H-indazol-5-yl)amino)pyrimidin-2-yl)-N-(pyridin-4-yl)-1H-indole-2-carboxamide] | 16
2 | O=C(Nc1cnoc1)c1cc2ccc(-c3nccc(Nc4ccc5[nH]ncc5c4)n3)cc2[nH]1 [TDI01156, 6-(4-((1H-indazol-5-yl)amino)pyrimidin-2-yl)-N-(isoxazol-4-yl)-1H-indole-2-carboxamide] | 25
3 | O=C(NC1CC1)c1cc2ccc(-c3nccc(Nc4ccc5[nH]ncc5c4)n3)cc2s1 [TDI01111, 6-(4-((1H-indazol-5-yl)amino)pyrimidin-2-yl)-N-cyclopropylbenzo[b]thiophene-2-carboxamide] | 100
4 | O=C(NC1CCN(c2ccncc2Cl)CC1)c1cc2ccc(-c3nccc(Nc4ccc(-c5cn[nH]c5)cc4)n3)cc2[nH]1 [TDI01847B, 6-(4-((4-(1H-pyrazol-4-yl)phenyl)amino)pyrimidin-2-yl)-N-(1-(3-chloropyridin-4-yl)piperidin-4-yl)-1H-indole-2-carboxamide] | 26
5 | O=C(Nc1ccncn1)c1cc2ccc(-c3nccc(Nc4ccc5[nH]ncc5c4)n3)cc2[nH]1 [TDI01161, 6-(4-((1H-indazol-5-yl)amino)pyrimidin-2-yl)-N-(pyrimidin-4-yl)-1H-indole-2-carboxamide] | 210
6 | O=C(c1cc2ccc(-c3nccc(Nc4ccc(-c5cn[nH]c5)cc4)n3)cc2[nH]1)N1CCOC[C@H]1CO [TDI01853, (R)-(6-(4-((4-(1H-pyrazol-4-yl)phenyl)amino)pyrimidin-2-yl)-1H-indol-2-yl)(3-(hydroxymethyl)morpholino)methanone] | 275
7 | CC(C)NC(=O)c1c[nH]c2ccc(-c3nccc(Nc4ccc5[nH]ncc5c4)n3)cc12 [TDI01285, 5-(4-((1H-indazol-5-yl)amino)pyrimidin-2-yl)-N-isopropyl-1H-indole-3-carboxamide] | 116
8 | O=C(Nc1ccncc1)c1cc2ccc(-c3nccc(Nc4ccc(-c5cn[nH]c5)cc4)n3)cc2s1 [TDI01393] | 258
9 | CN1CCN(CC(=O)n2ccc3ccc(-c4nccc(Nc5ccc6[nH]ncc6c5)n4)cc32)CC1 [TDI01230, 1-(6-(4-((1H-indazol-5-yl)amino)pyrimidin-2-yl)-1H-indol-1-yl)-2-(4-methylpiperazin-1-yl)ethan-1-one] | 109
10 | O=C(NC1CCC1)c1cc2ccc(-c3nc(Nc4ccc(-c5cn[nH]c5)cc4)c4sccc4n3)cc2[nH]1 [TDI01424, 6-(4-((4-(1H-pyrazol-4-yl)phenyl)amino)thieno[3,2-d]pyrimidin-2-yl)-N-cyclobutyl-1H-indole-2-carboxamide] | 138
11 | O=C(Nc1ccc2[nH]ncc2c1)c1cc2ccc(-c3nccc(Nc4ccc5[nH]ncc5c4)n3)cc2[nH]1 [TDI01182, 6-(4-((1H-indazol-5-yl)amino)pyrimidin-2-yl)-N-(1H-indazol-5-yl)-1H-indole-2-carboxamide] | 46
12 | CN(C)c1ccc(NC(=O)c2cc3ccc(-c4nccc(Nc5ccc6[nH]ncc6c5)n4)cc3[nH]2)cn1 [TDI01221, 6-(4-((1H-indazol-5-yl)amino)pyrimidin-2-yl)-N-(6-(dimethylamino)pyridin-3-yl)-1H-indole-2-carboxamide] | 91
13 | O=C(NC1CCCCC1)c1cc2ccc(-c3nccc(Nc4ccc5[nH]ncc5c4)n3)cc2s1 [TDI01112, 6-(4-((1H-indazol-5-yl)amino)pyrimidin-2-yl)-N-cyclohexylbenzo[b]thiophene-2-carboxamide] | 185
14 | CN(C)C(=O)c1cc2ccc(-c3nccc(Nc4ccc5[nH]ncc5c4)n3)cc2s1 [TDI01110, 6-(4-((1H-indazol-5-yl)amino)pyrimidin-2-yl)-N,N-dimethylbenzo[b]thiophene-2-carboxamide] | 422
15 | CN(CC(F)(F)F)C(=O)c1cc2ccc(-c3ncc(F)c(Nc4ccc(-c5cn[nH]c5)cc4)n3)cc2[nH]1 [TDI01426] | 365
16 | CC(C)NC(=O)c1ccc2cc(-c3nccc(Nc4ccc5[nH]ncc5c4)n3)sc2c1 [TDI01106, 2-(4-((1H-indazol-5-yl)amino)pyrimidin-2-yl)-N-isopropylbenzo[b]thiophene-6-carboxamide] | 112

Row | SMILES | IC50 [nM]
17 | CN(C(=O)c1cc2ccc(-c3nccc(Nc4ccc(-c5cn[nH]c5)cc4)n3)cc2[nH]1)C1CCNC1 (centres unmarked) [TDI01345, 6-(4-((4-(1H-pyrazol-4-yl)phenyl)amino)pyrimidin-2-yl)-N-methyl-N-(pyrrolidin-3-yl)-1H-indole-2-carboxamide] | 333
18 | O=C(Nc1cccnc1)c1cc2ccc(-c3nccc(Nc4ccc5[nH]ncc5c4)n3)cc2[nH]1 [TDI01171, 6-(4-((1H-indazol-5-yl)amino)pyrimidin-2-yl)-N-(pyridin-3-yl)-1H-indole-2-carboxamide] | 63
19 | O=C(NC1CCOC1)c1cc2ccc(-c3nccc(Nc4ccc5[nH]ncc5c4)n3)cc2s1 (centres unmarked) [TDI01113, 6-(4-((1H-indazol-5-yl)amino)pyrimidin-2-yl)-N-(tetrahydrofuran-3-yl)benzo[b]thiophene-2-carboxamide] | 42
20 | CN(C(=O)c1cc2ccc(-c3nccc(Nc4ccc(-c5cn[nH]c5)cc4)n3)cc2[nH]1)C1CC(O)C1 (centres unmarked) [TDI01418] | 272
21 | CN1CCC(N2CCC(NC(=O)c3cc4ccc(-c5nccc(Nc6ccc7[nH]ncc7c6)n5)cc4[nH]3)CC2)CC1 [TDI01317, 6-(4-((1H-indazol-5-yl)amino)pyrimidin-2-yl)-N-(1′-methyl-[1,4′-bipiperidin]-4-yl)-1H-indole-2-carboxamide] | 112
22 | O=C(Nc1nncs1)c1cc2ccc(-c3nccc(Nc4ccc5[nH]ncc5c4)n3)cc2[nH]1 [TDI01247, 6-(4-((1H-indazol-5-yl)amino)pyrimidin-2-yl)-N-(1,3,4-thiadiazol-2-yl)-1H-indole-2-carboxamide] | 134
23 | CC(C)NC(=O)c1cc2ccc(-c3nc(Nc4ccc5[nH]ncc5c4)c4scnc4n3)cc2[nH]1 [TDI01149, 6-(7-((1H-indazol-5-yl)amino)thiazolo[4,5-d]pyrimidin-5-yl)-N-isopropyl-1H-indole-2-carboxamide] | 100
24 | CN(CC#N)C(=O)c1cc2ccc(-c3nccc(Nc4ccc(-c5cn[nH]c5)cc4)n3)cc2[nH]1 [TDI01430] | 116
25 | O=C(Nc1ccncc1Cl)c1cc2ccc(-c3nccc(Nc4ccc5[nH]ncc5c4)n3)cc2[nH]1 [TDI01290, 6-(4-((1H-indazol-5-yl)amino)pyrimidin-2-yl)-N-(3-chloropyridin-4-yl)-1H-indole-2-carboxamide] | 46
26 | CN1CCN(c2ccc(NC(=O)c3cc4ccc(-c5nccc(Nc6ccc7[nH]ncc7c6)n5)cc4[nH]3)cc2)CC1 [TDI01131, 6-(4-((1H-indazol-5-yl)amino)pyrimidin-2-yl)-N-(4-(4-methylpiperazin-1-yl)phenyl)-1H-indole-2-carboxamide] | 101
27 | N#Cc1cnccc1NC(=O)c1cc2ccc(-c3nccc(Nc4ccc(-c5cn[nH]c5)cc4)n3)cc2[nH]1 [TDI01829B] | 82
28 | O=C(c1cc2ccc(-c3nccc(Nc4ccc(-c5cn[nH]c5)cc4)n3)cc2[nH]1)N1CCC2(CCNCC2)CC1 [TDI01425, (6-(4-((4-(1H-pyrazol-4-yl)phenyl)amino)pyrimidin-2-yl)-1H-indol-2-yl)(3,9-diazaspiro[5.5]undecan-3-yl)methanone] | 119
29 | CC(C)NC(=O)c1cc2ccc(-c3nc(Nc4ccc5[nH]ncc5c4)c4sccc4n3)cc2[nH]1 [TDI01141, 6-(4-((1H-indazol-5-yl)amino)thieno[3,2-d]pyrimidin-2-yl)-N-isopropyl-1H-indole-2-carboxamide] | 73
30 | COC(=O)c1ccc(NC(=O)c2cc3ccc(-c4nccc(Nc5ccc6[nH]ncc6c5)n4)cc3[nH]2)cc1 [TDI01130, methyl 4-(6-(4-((1H-indazol-5-yl)amino)pyrimidin-2-yl)-1H-indole-2-carboxamido)benzoate] | 33
31 | O=C(NC1CCOC1)c1cc2ccc(-c3nccc(Nc4ccc(-c5cn[nH]c5)cc4)n3)cc2[nH]1 (centres unmarked) [TDI01337, 6-(4-((4-(1H-pyrazol-4-yl)phenyl)amino)pyrimidin-2-yl)-N-(tetrahydrofuran-3-yl)-1H-indole-2-carboxamide] | 121
32 | CCN(CCO)C(=O)c1cc2ccc(-c3nccc(Nc4ccc(-c5cn[nH]c5)cc4)n3)cc2[nH]1 [TDI01415, 6-(4-((4-(1H-pyrazol-4-yl)phenyl)amino)pyrimidin-2-yl)-N-ethyl-N-(2-hydroxyethyl)-1H-indole-2-carboxamide] | 262
